Measurements published in PubChem BioAssay (NCI).
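Test compounds were applied to cells in 96-well plates for 48 hours at 5 doses. TGI: total growth inhibition.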

Tested on: RXF-631 renal
Experiment: NCI tumour cell line growth inhibition, 48 h

Row | SMILES | TGI
1 | CCCCCCCCCCCCCCCCCC(=O)O[C@H](COC(=O)CCCCCCCCCCC)COC(=O)CCCCCCCCCCCCCCC | > 100 µM
2 | NC1=NS(=O)(=O)Nc2nc(-c3ccc(Cl)cc3)c(-c3ccc(Cl)cc3)nc21 | > 100 µM
